pIC50: −log10 of the molar value. Counter-ions that a name gives are not always drawn.
test system: BMP signal in MDA-231-D-BREFluc/Rluc cells; test: BMP signal inhibitory effect (AlphaScreen SureFire SMAD1 p-Ser463/465, BMP-6 stimulation); type: cell-based; settings: BMP-6 stimulated MDA-231-D-BREFluc/Rluc cells, phospho-SMAD1 AlphaScreen; read-out: IC50
Procedure: BMP Signal Inhibitory Effect
A BMP signal inhibitory activity of a compound of the present invention was evaluated according to the following method.
MDA-231-D-BREFluc/Rluc cells prepared according to the method described in Y. Katsuno et al., Oncogene, 27, 6322 (2008) were incubated at 37° C. for 2 hours together with test compounds, and BMP-6 (commercially available from R&D System, 507-BM-020) was then added thereto, and the mixture was additionally incubated at 37° C. for 30 minutes. A Lysis Buffer and Acceptor mix of AlphaScreen SureFire SMAD1 (p-Ser463/465) assay kit (commercially available from Perkin Elmer, TGRSM1S10K) were sequentially added thereto, the mixture was incubated at room temperature for 2 hours, and AlphaScreen Protein A kit (commercially available from Perkin Elmer, 6760617) was then added thereto, and standard AlphaScreen settings of Alpha Technology—compatible plate reader (commercially available from Perkin Elmer, EnSpire) was used for measurement.

Compound	pIC50
CCn1cc(-c2ccnc(Nc3cnn(C4CN(CC(C)(C)O)C4)c3)n2)c(-c2cccnc2)n1 [Example 48, 1-(3-(4-((4-(1-Ethyl-3-(pyridin-3-yl)-1H-pyrazol-4-yl)pyrimidin-2-yl)amino)-1H-pyrazol-1-yl)azetidin-1-yl)-2-methylpropan-2-ol]	7.67
CCn1cc(-c2ccnc(Nc3ccc(C4CCN(CCOC)C4)cc3)n2)c(-c2cccnc2)n1 (centres unmarked) [Example 50, 4-(1-ethyl-3-(pyridin-3-yl)-1H-pyrazol-4-yl)-N-(4-(1-(2-methoxyethyl)pyrrolidin-3-yl)phenyl)pyrimidin-2-amine]	8.20
CCn1cc(-c2ccnc(Nc3ccc(N4CCN(CCOCC(F)F)CC4)cc3)n2)c(-c2cccnc2)n1 [Example 51, N-(4-(4-(2-(2,2-difluoroethoxy)ethyl)piperazin-1-yl)phenyl)-4-(1-ethyl-3-(pyridin-3-yl)-1H-pyrazol-4-yl)pyrimidin-2-amine]	7.74
CCn1cc(-c2ccnc(Nc3cnn(C4CCN(CC(C)(C)O)CC4)c3)n2)c(-c2cccnc2)n1 [Example 54, 1-(4-(4-((4-(1-Ethyl-3-(pyridin-3-yl)-1H-pyrazol-4-yl)pyrimidin-2-yl)amino)-1H-pyrazol-1-yl)piperidin-1-yl)-2-methylpropan-2-ol]	8.09
CCn1cc(-c2ccnc(Nc3cnn(C4CCN(CCOC)CC4)c3)n2)c(-c2cccnc2)n1 [Example 55, 4-(1-ethyl-3-(pyridin-3-yl)-1H-pyrazol-4-yl)-N-(1-(1-(2-methoxyethyl)piperidin-4-yl)-1H-pyrazol-4-yl)pyrimidin-2-amine oxalate]	7.67
COCCN1CCC(c2ccc(Nc3nccc(-c4cn(CCOC)nc4-c4cccnc4)n3)cc2)CC1 [Example 57, 4-(1-(2-methoxyethyl)-3-(pyridin-3-yl)-1H-pyrazol-4-yl)-N-(4-(1-(2-methoxyethyl)piperidin-4-yl)phenyl)pyrimidin-2-amine]	7.89
CCn1cc(-c2ccnc(Nc3ccc(C4CCN(CCOC)CC4)cc3)n2)c(-c2cccnc2)n1 [Example 58, 4-(1-ethyl-3-(pyridin-3-yl)-1H-pyrazol-4-yl)-N-(4-(1-(2-methoxyethyl)piperidin-4-yl)phenyl)pyrimidin-2-amine]	8.36
CCn1cc(-c2ccnc(Nc3ccc(C4CCN(C(=O)CO)CC4)cc3)n2)c(-c2cccnc2)n1 [Example 59, 1-(4-(4-((4-(1-ethyl-3-(pyridin-3-yl)-1H-pyrazol-4-yl)pyrimidin-2-yl)amino)phenyl)piperidin-1-yl)-2-hydroxyethan-1-one]	7.60
COCCn1cc(-c2ccnc(Nc3ccc4c(c3)CN(C)C4)n2)c(-c2cccnc2)n1 [Example 60, N-(4-(1-(2-methoxyethyl)-3-(pyridin-3-yl)-1H-pyrazol-4-yl)pyrimidin-2-yl)-2-methylisoindolin-5-amine]	8.19
COCCn1cc(-c2ccnc(Nc3ccc4c(c3)CCN(C)C4)n2)c(-c2cccnc2)n1 [Example 64, N-(4-(1-(2-Methoxyethyl)-3-(pyridin-3-yl)-1H-pyrazol-4-yl)pyrimidin-2-yl)-2-methyl-1,2,3,4-tetrahydroisoquinolin-6-amine]	8.40
CN1CCc2cc(Nc3nccc(-c4cn(CC(C)(C)O)nc4-c4cccnc4)n3)ccc2C1 [Example 65, 2-Methyl-1-(4-(2-((2-methyl-1,2,3,4-tetrahydroisoquinolin-6-yl)amino)pyrimidin-4-yl)-3-(pyridin-3-yl)-1H-pyrazol-1-yl)propan-2-ol]	8.48
CCn1cc(-c2ccnc(Nc3ccc4c(c3)CCN(C3CC3)CC4)n2)c(-c2cccnc2)n1 [Example 66, 3-Cyclopropyl-N-(4-(1-ethyl-3-(pyridin-3-yl)-1H-pyrazol-4-yl)pyrimidin-2-yl)-2,3,4,5-tetrahydro-1H-benzo[d]azepin-7-amine]	8.19
CCn1cc(-c2ccnc(Nc3ccc4c(c3)OCCN(C)C4)n2)c(-c2cccnc2)n1 [Example 67, N-(4-(1-ethyl-3-(pyridin-3-yl)-1H-pyrazol-4-yl)pyrimidin-2-yl)-4-methyl-2,3,4,5-tetrahydrobenzo[f][1,4]oxazepin-8-amine]	8.28
CCn1cc(-c2ccnc(Nc3ccc(N4CCC(C)(N(C)C)CC4)cc3)n2)c(-c2cccnc2)n1 [Example 68, N-(4-(4-(Dimethylamino)-4-methylpiperidin-1-yl)phenyl)-4-(1-ethyl-3-(pyridin-3-yl)-1H-pyrazol-4-yl)pyrimidin-2-amine]	8.17
CCn1cc(-c2ccnc(Nc3ccc(-c4cnco4)cc3)n2)c(-c2cccnc2)n1 [Example 70, 4-(1-ethyl-3-(pyridin-3-yl)-1H-pyrazol-4-yl)-N-(4-(oxazol-5-yl)phenyl)pyrimidin-2-amine]	7.47
COCCN1CCN(c2ccc(Nc3nccc(-c4cn(CC5(C)COC5)nc4-c4cccnc4)n3)cc2)CC1 [Example 77]	7.29
CN1CCCC1CN1CCN(c2ccc(Nc3nccc(-c4cn(C5COC5)nc4-c4cccnc4)n3)cc2)CC1 (centres unmarked) [Example 79, N-(4-(4-((1-Methylpyrrolidin-2-yl)methyl)piperazin-1-yl)phenyl)-4-(1-(oxetan-3-yl)-3-(pyridin-3-yl)-1H-pyrazol-4-yl)pyrimidin-2-amine]	7.45
COCCN1CCN(c2ccc(Nc3nccc(-c4cn(CC(C)(C)O)nc4-c4cccnc4)n3)cc2)CC1 [Example 81, 1-(4-(2-((4-(4-(2-Methoxyethyl)piperazin-1-yl)phenyl)amino)pyrimidin-4-yl)-3-(pyridin-3-yl)-1H-pyrazol-1-yl)-2-methylpropan-2-ol]	7.68

Other lines, results leading:

pIC50	Compound
7.88	CCn1cc(-c2ccnc(Nc3ccc(N4CCN(CCOCC5CC5)CC4)cc3)n2)c(-c2cccnc2)n1 [Example 52, N-(4-(4-(2-(Cyclopropylmethoxy)ethyl)piperazin-1-yl)phenyl)-4-(1-ethyl-3-(pyridin-3-yl)-1H-pyrazol-4-yl)Pyrimidin-2-amine]
7.66	CCn1cc(-c2ccnc(Nc3cnn(C4CCOCC4)c3)n2)c(-c2cccnc2)n1 [Example 53, 4-(1-ethyl-3-(pyridin-3-yl)-1H-pyrazol-4-yl)-N-(1-(tetrahydro-2H-pyran-4-yl)-1H-pyrazol-4-yl)pyrimidin-2-amine]
7.75	CCn1cc(-c2ccnc(Nc3ccc(-c4nnc(C)s4)cc3)n2)c(-c2cccnc2)n1 [Example 56, 4-(1-Ethyl-3-(pyridin-3-yl)-1H-pyrazol-4-yl)-N-(4-(5-methyl-1,3,4-thiadiazol-2-yl)phenyl)pyrimidin-2-amine]
8.15	CCn1cc(-c2ccnc(Nc3ccc4c(c3)CN(CCOC)C4)n2)c(-c2cccnc2)n1 [Example 61, N-(4-(1-ethyl-3-(pyridin-3-yl)-1H-pyrazol-4-yl)pyrimidin-2-yl)-2-(2-methoxyethyl)isoindolin-5-amine]
8.00	COCCN1Cc2ccc(Nc3nccc(-c4cn(CCOC)nc4-c4cccnc4)n3)cc2C1 [Example 62, 2-(2-Methoxyethyl)-N-(4-(1-(2-methoxyethyl)-3-(pyridin-3-yl)-1H-pyrazol-4-yl)pyrimidin-2-yl)isoindolin-5-amine]
8.41	CN1Cc2ccc(Nc3nccc(-c4cn(CC(C)(C)O)nc4-c4cccnc4)n3)cc2C1 [Example 63, 2-Methyl-1-(4-(2-((2-methylisoindolin-5-yl)amino)pyrimidin-4-yl)-3-(pyridin-3-yl)-1H-pyrazol-1-yl)propan-2-ol]
7.89	CCn1cc(-c2ccnc(Nc3ccc(N4CCN5CCC4CC5)cc3)n2)c(-c2cccnc2)n1 [Example 69, N-(4-(1,4-diazabicyclo[3.2.2]nonan-4-yl)phenyl)-4-(1-ethyl-3-(pyridin-3-yl)-1H-pyrazol-4-yl)pyrimidin-2-amine]
7.87	FC(F)(F)OCCn1cc(-c2ccnc(Nc3ccc(N4CCNCC4)cc3)n2)c(-c2cccnc2)n1 [Example 72, N-(4-(Piperazin-1-yl)phenyl)-4-(3-(pyridin-3-yl)-1-(2-(trifluoromethoxy)ethyl)-1H-pyrazol-4-yl)pyrimidin-2-amine]
8.14	CCn1cc(-c2ccnc(Nc3ccc4c(c3)CNC4)n2)c(-c2cccnc2)n1 [Example 73, N-(4-(1-ethyl-3-(pyridin-3-yl)-1H-pyrazol-4-yl)pyrimidin-2-yl)isoindolin-5-amine]
7.41	CC(=O)N1CCN(C(=O)c2ccc(Nc3nccc(-c4cn(CCc5ccccc5)nc4-c4cccnc4)n3)cc2)CC1 [Example 74, 1-(4-(4-((4-(1-phenethyl-3-(pyridin-3-yl)-1H-pyrazol-4-yl)pyrimidin-2-yl)amino)benzoyl)piperazin-1-yl)ethan-1-one]
7.34	COCCN1CCN(c2ccc(Nc3nccc(-c4cn(C5CCOC5)nc4-c4cccnc4)n3)cc2)CC1 (centres unmarked) [Example 76, N-(4-(4-(2-methoxyethyl)piperazin-1-yl)phenyl)-4-(3-(pyridin-3-yl)-1-(tetrahydrofuran-3-yl)-1H-pyrazol-4-yl)pyrimidin-2-amine]
7.90	CCn1cc(-c2ccnc(Nc3ccc(N4CCN(CC5CCCN5C)CC4)cc3)n2)c(-c2cccnc2)n1 (centres unmarked) [Example 78, 4-(1-Ethyl-3-(pyridin-3-yl)-1H-pyrazol-4-yl)-N-(4-(4-((1-methylpyrrolidin-2-yl)methyl)piperazin-1-yl)phenyl)pyrimidin-2-amine]
7.57	COCCn1cc(-c2ccnc(Nc3ccc(N4CCN(CC5CCCN5C)CC4)cc3)n2)c(-c2cccnc2)n1 (centres unmarked) [Example 80, 4-(1-(2-Methoxyethyl)-3-(pyridin-3-yl)-1H-pyrazol-4-yl)-N-(4-(4-((1-methylpyrrolidin-2-yl)methyl)piperazin-1-yl)phenyl)pyrimidin-2-amine]
7.74	COCCN1CCN(c2ccc(Nc3nccc(-c4cn(Cc5ccccc5C#N)nc4-c4cccnc4)n3)cc2)CC1 [Example 82]

— patent US10954216B2, “BMP-signal-inhibiting compound” (RIKEN, priority 2016, dated 2021)
